{"source": "paper PMC6934184", "about": "“Selective DNA-PKcs inhibition extends the therapeutic index of localized radiotherapy and chemotherapy” (The Journal of Clinical Investigation, 2019)", "molecular_target": "T1, FLT3 (Homo sapiens, UniProt P36888)", "T1 construct": "purchased Thermo Fisher Scientific (Life Technologies) SelectScreen", "T1 sequence (P36888 27-993)": "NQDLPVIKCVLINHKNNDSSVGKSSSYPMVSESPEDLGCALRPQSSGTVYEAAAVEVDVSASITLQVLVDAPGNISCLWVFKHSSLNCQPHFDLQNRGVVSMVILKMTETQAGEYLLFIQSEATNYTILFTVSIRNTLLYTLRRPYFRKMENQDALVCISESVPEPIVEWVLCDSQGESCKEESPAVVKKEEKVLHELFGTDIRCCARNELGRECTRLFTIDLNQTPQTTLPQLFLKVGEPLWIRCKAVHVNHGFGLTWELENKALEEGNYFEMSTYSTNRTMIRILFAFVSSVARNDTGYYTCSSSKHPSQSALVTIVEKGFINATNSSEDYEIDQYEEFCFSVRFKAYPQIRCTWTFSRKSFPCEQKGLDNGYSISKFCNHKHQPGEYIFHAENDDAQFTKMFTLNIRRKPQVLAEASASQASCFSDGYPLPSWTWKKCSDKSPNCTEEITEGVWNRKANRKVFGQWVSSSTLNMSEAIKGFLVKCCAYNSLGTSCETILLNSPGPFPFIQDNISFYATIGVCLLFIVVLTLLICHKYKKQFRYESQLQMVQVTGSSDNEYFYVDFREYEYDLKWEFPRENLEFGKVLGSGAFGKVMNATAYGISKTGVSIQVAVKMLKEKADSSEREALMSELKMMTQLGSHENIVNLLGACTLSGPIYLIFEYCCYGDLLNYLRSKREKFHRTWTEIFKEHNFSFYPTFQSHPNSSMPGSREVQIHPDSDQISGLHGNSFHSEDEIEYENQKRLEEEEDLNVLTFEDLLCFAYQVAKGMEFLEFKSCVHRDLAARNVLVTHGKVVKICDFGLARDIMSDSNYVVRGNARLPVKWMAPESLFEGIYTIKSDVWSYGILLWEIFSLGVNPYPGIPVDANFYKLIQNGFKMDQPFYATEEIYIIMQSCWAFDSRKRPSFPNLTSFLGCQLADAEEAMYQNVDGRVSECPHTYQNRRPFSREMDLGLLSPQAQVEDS", "experiment": "SelectScreen Z'LYTE", "assay_type": "biochemical", "method_in_brief": "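Percent values come from Thermo SelectScreen profiling of NU5455, combining activity and binding assays. CSF1R was run in Z'LYTE format at Km app ATP, and CAMK1 in Adapta format with ATP listed at 10.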", "data": [{"smiles": "CN(C(=O)CN1CCOCC1)c1ccc2sc3c(-c4cccc5c(=O)cc(N6CC7CCC(C6)O7)oc45)cccc3c2c1", "note": "[NU5455]", "values": [{"measurement": "inhibition at 1 µM", "result": 9.1, "unit": "%"}]}]}
